Results from PubChem BioAssay (NCI).
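Where inhibition never reached the appropriate level, the endpoint shown equals the highest concentration tested. Otherwise, values were interpolated linearly from a five-concentration, 48-hour dose response in 96-well plates. TGI: concentration producing complete growth inhibition.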

Assays:
Experiment in all cases: NCI tumour cell line growth inhibition, 48 h
MOLT-4 leukemia = test system: MOLT-4 leukemia
HCT-116 colon = test system: HCT-116 colon
A549 NSCLC = test system: A549 NSCLC
U251 CNS = test system: U251 CNS
OVCAR-4 ovarian = test system: OVCAR-4 ovarian
HOP-92 NSCLC = test system: HOP-92 NSCLC
KM12 colon = test system: KM12 colon
LOX IMVI melanoma = test system: LOX IMVI melanoma
HCC-2998 colon = test system: HCC-2998 colon
UO-31 renal = test system: UO-31 renal
UACC-62 melanoma = test system: UACC-62 melanoma
786-0 renal = test system: 786-0 renal
SF-295 CNS = test system: SF-295 CNS
MALME-3M melanoma = test system: MALME-3M melanoma
OVCAR-8 ovarian = test system: OVCAR-8 ovarian
DMS 114 small cell lung = test system: DMS 114 small cell lung
M14 melanoma = test system: M14 melanoma
HL-60(TB) leukemia = test system: HL-60(TB) leukemia
K-562 leukemia = test system: K-562 leukemia
RPMI-8226 leukemia = test system: RPMI-8226 leukemia
HOP-18 NSCLC = test system: HOP-18 NSCLC
UACC-257 melanoma = test system: UACC-257 melanoma
DLD-1 colon = test system: DLD-1 colon
SN12C renal = test system: SN12C renal
M19-MEL melanoma = test system: M19-MEL melanoma
SK-OV-3 ovarian = test system: SK-OV-3 ovarian
XF 498 CNS = test system: XF 498 CNS
EKVX NSCLC = test system: EKVX NSCLC
SNB-78 CNS = test system: SNB-78 CNS
SW-620 colon = test system: SW-620 colon
ACHN renal = test system: ACHN renal
LXFL 529 NSCLC = test system: LXFL 529 NSCLC
OVCAR-5 ovarian = test system: OVCAR-5 ovarian
OVCAR-3 ovarian = test system: OVCAR-3 ovarian
HT29 colon = test system: HT29 colon
SK-MEL-2 melanoma = test system: SK-MEL-2 melanoma
NCI-H23 lung = test system: NCI-H23 lung
SF-268 CNS = test system: SF-268 CNS
NCI-H460 lung = test system: NCI-H460 lung
CCRF-CEM leukemia = test system: CCRF-CEM leukemia
IGROV1 ovarian = test system: IGROV1 ovarian
NCI-H226 lung = test system: NCI-H226 lung
HOP-62 NSCLC = test system: HOP-62 NSCLC
TK-10 renal = test system: TK-10 renal
A498 renal = test system: A498 renal
SK-MEL-28 melanoma = test system: SK-MEL-28 melanoma
RXF-631 renal = test system: RXF-631 renal
NCI-H522 lung = test system: NCI-H522 lung
SF-539 CNS = test system: SF-539 CNS
RXF 393 renal = test system: RXF 393 renal
KM20L2 colon = test system: KM20L2 colon
SNB-19 CNS = test system: SNB-19 CNS
SR leukemia = test system: SR leukemia
SNB-75 CNS = test system: SNB-75 CNS
HCT-15 colon = test system: HCT-15 colon
CAKI-1 renal = test system: CAKI-1 renal
COLO 205 colon = test system: COLO 205 colon
SK-MEL-5 melanoma = test system: SK-MEL-5 melanoma

## Cc1ncc(CCl)c2c1OC(C)(C)OC2
MOLT-4 leukemia
  TGI: > 100 µM
HCT-116 colon
  TGI: 65.8 µM
A549 NSCLC
  TGI: > 100 µM
U251 CNS
  TGI: 27.5 µM
OVCAR-4 ovarian
  TGI: 28.4 µM
HOP-92 NSCLC
  TGI: 73.1 µM
KM12 colon
  TGI: > 100 µM
LOX IMVI melanoma
  TGI: 33.5 µM
HCC-2998 colon
  TGI: > 100 µM
UO-31 renal
  TGI: > 100 µM
UACC-62 melanoma
  TGI: > 100 µM
786-0 renal
  TGI: 41.2 µM
SF-295 CNS
  TGI: > 100 µM
MALME-3M melanoma
  TGI: 37 µM
OVCAR-8 ovarian
  TGI: > 100 µM
DMS 114 small cell lung
  TGI: > 100 µM
M14 melanoma
  TGI: > 100 µM
HL-60(TB) leukemia
  TGI: 65.2 µM
K-562 leukemia
  TGI: > 100 µM
RPMI-8226 leukemia
  TGI: > 100 µM
HOP-18 NSCLC
  TGI: 36 µM
UACC-257 melanoma
  TGI: > 100 µM
DLD-1 colon
  TGI: > 100 µM
SN12C renal
  TGI: > 100 µM
M19-MEL melanoma
  TGI: > 100 µM
SK-OV-3 ovarian
  TGI: > 100 µM
XF 498 CNS
  TGI: > 100 µM
EKVX NSCLC
  TGI: 41.4 µM
SNB-78 CNS
  TGI: > 100 µM
SW-620 colon
  TGI: 34 µM
ACHN renal
  TGI: 45.4 µM
LXFL 529 NSCLC
  TGI: > 100 µM
OVCAR-5 ovarian
  TGI: 40.3 µM
OVCAR-3 ovarian
  TGI: 69.7 µM
HT29 colon
  TGI: > 100 µM
SK-MEL-2 melanoma
  TGI: > 100 µM
NCI-H23 lung
  TGI: > 100 µM
SF-268 CNS
  TGI: 53.6 µM
NCI-H460 lung
  TGI: > 100 µM
CCRF-CEM leukemia
  TGI: > 100 µM
IGROV1 ovarian
  TGI: > 100 µM
NCI-H226 lung
  TGI: > 100 µM
HOP-62 NSCLC
  TGI: > 100 µM
TK-10 renal
  TGI: > 100 µM
A498 renal
  TGI: > 100 µM
SK-MEL-28 melanoma
  TGI: 56.6 µM
RXF-631 renal
  TGI: 73.9 µM
NCI-H522 lung
  TGI: 32.6 µM
SF-539 CNS
  TGI: > 100 µM
RXF 393 renal
  TGI: 29.5 µM
KM20L2 colon
  TGI: > 100 µM
SNB-19 CNS
  TGI: > 100 µM

## CN1CC[C@]2(C)c3c(O)cccc3CC3CCCC1C32C (stereo partly drawn)
MOLT-4 leukemia
  TGI: > 100 µM
SR leukemia
  TGI: > 100 µM
HCT-116 colon
  TGI: > 100 µM
A549 NSCLC
  TGI: > 100 µM
U251 CNS
  TGI: > 100 µM
HOP-92 NSCLC
  TGI: > 100 µM
KM12 colon
  TGI: > 100 µM
LOX IMVI melanoma
  TGI: > 100 µM
HCC-2998 colon
  TGI: 72.7 µM
UO-31 renal
  TGI: > 100 µM
UACC-62 melanoma
  TGI: > 100 µM
SNB-75 CNS
  TGI: > 100 µM
786-0 renal
  TGI: > 100 µM
SF-295 CNS
  TGI: > 100 µM
MALME-3M melanoma
  TGI: > 100 µM
OVCAR-8 ovarian
  TGI: > 100 µM
DMS 114 small cell lung
  TGI: > 100 µM
M14 melanoma
  TGI: > 100 µM
HL-60(TB) leukemia
  TGI: > 100 µM
K-562 leukemia
  TGI: > 100 µM
RPMI-8226 leukemia
  TGI: > 100 µM
HOP-18 NSCLC
  TGI: > 100 µM
UACC-257 melanoma
  TGI: > 100 µM
DLD-1 colon
  TGI: > 100 µM
SN12C renal
  TGI: > 100 µM
M19-MEL melanoma
  TGI: > 100 µM
SK-OV-3 ovarian
  TGI: > 100 µM
XF 498 CNS
  TGI: > 100 µM
EKVX NSCLC
  TGI: > 100 µM
SNB-78 CNS
  TGI: > 100 µM
HCT-15 colon
  TGI: > 100 µM
ACHN renal
  TGI: > 100 µM
LXFL 529 NSCLC
  TGI: > 100 µM
OVCAR-5 ovarian
  TGI: > 100 µM
OVCAR-3 ovarian
  TGI: > 100 µM
HT29 colon
  TGI: > 100 µM
SK-MEL-2 melanoma
  TGI: > 100 µM
NCI-H23 lung
  TGI: > 100 µM
SF-268 CNS
  TGI: > 100 µM
NCI-H460 lung
  TGI: > 100 µM
CCRF-CEM leukemia
  TGI: > 100 µM
IGROV1 ovarian
  TGI: > 100 µM
NCI-H226 lung
  TGI: > 100 µM
HOP-62 NSCLC
  TGI: > 100 µM
TK-10 renal
  TGI: > 100 µM
A498 renal
  TGI: > 100 µM
SK-MEL-28 melanoma
  TGI: > 100 µM
RXF-631 renal
  TGI: > 100 µM
CAKI-1 renal
  TGI: > 100 µM
COLO 205 colon
  TGI: > 100 µM
NCI-H522 lung
  TGI: > 100 µM
SF-539 CNS
  TGI: > 100 µM
RXF 393 renal
  TGI: > 100 µM
SK-MEL-5 melanoma
  TGI: > 100 µM
KM20L2 colon
  TGI: > 100 µM
SNB-19 CNS
  TGI: > 100 µM
